From ChEMBL document CHEMBL1165876, “Novel bis-phenanthridine derivatives with easily tunable linkers, study of their interactions with DNA and screening of antiproliferative activity” (Eur J Med Chem, 2010)
Values after ≈ are worked out from the molar mass of the structure shown.

Key:
Calf thymus DNA [1] = assay: Binding affinity to calf thymus DNA assessed as fluorescence quenching at pH 5 by fluorimetric titration; format: nucleic-acid assay; settings: Bos taurus
Calf thymus DNA [2] = assay: Binding affinity to calf thymus DNA assessed as change in melting temperature in citric acid/NaOH buffer ayt pH 5 at [compound]/[DNA] ratio of 0.1 by tangent method; format: nucleic-acid assay; settings: Bos taurus
Calf thymus DNA [3] = assay: Binding affinity to calf thymus DNA assessed as change in melting temperature in citric acid/NaOH buffer ayt pH 5 at [compound]/[DNA] ratio of 0.2 by tangent method; format: nucleic-acid assay; settings: Bos taurus
Calf thymus DNA [4] = assay: Binding affinity to calf thymus DNA assessed as fluorescence quenching at pH 7 by fluorimetric titration; format: nucleic-acid assay; settings: Bos taurus
[5] = Solubility in water; format: physicochemical
Calf thymus DNA [6] = assay: Binding affinity to calf thymus DNA assessed as change in melting temperature in citric acid/NaOH buffer ayt pH 5 at [compound]/[DNA] ratio of 0.3 by tangent method; format: nucleic-acid assay; settings: Bos taurus
HeLa = assay: Cytotoxicity against human HeLa cells after 72 hrs by MTT assay; format: functional, cell-based
NCI-H460 = assay: Cytotoxicity against human H460 cells after 72 hrs by MTT assay; format: functional, cell-based; settings: NCI-H460, 72 h
MCF7 = assay: Cytotoxicity against human MCF7 cells after 72 hrs by MTT assay; format: functional, cell-based; settings: MCF7, 72 h
SW-620 = assay: Cytotoxicity against human SW620 cells after 72 hrs by MTT assay; format: functional, cell-based; settings: SW-620, 72 h
MIA PaCa-2 = assay: Cytotoxicity against human MIAPaCa2 cells after 72 hrs by MTT assay; format: functional, cell-based; settings: MIA PaCa-2, 72 h

log Ks (Calf thymus DNA [1])	ΔTm (Calf thymus DNA [2])	ΔTm (Calf thymus DNA [3])	log Ks (Calf thymus DNA [4])	solubility [5]	ΔTm (Calf thymus DNA [6])	Structure (SMILES)	IC50 (HeLa)	IC50 (NCI-H460)	IC50 (MCF7)	IC50 (SW-620)	IC50 (MIA PaCa-2)
5.5	6.5 °C	8.1 °C	4.7	1000 µM (≈ 337 µg/mL)	11.1 °C	Cc1nc2ccccc2c2ccc(C[C@H](NC(=O)CN)C(=O)O)cc12					
6.7	8.6 °C	11 °C		1000 µM (≈ 543 µg/mL)	11.3 °C	Cc1nc2ccccc2c2ccc(C[C@H](NC(=O)[C@@H](N)Cc3ccc4c(c3)c(C)nc3ccccc34)C(=O)O)cc12					
	14.3 °C	16.5 °C		1000 µM (≈ 600 µg/mL)	18.4 °C	Cc1nc2ccccc2c2ccc(C[C@H](NC(=O)CNC(=O)[C@@H](N)Cc3ccc4c(c3)c(C)nc3ccccc34)C(=O)O)cc12	> 100 µM	> 100 µM	> 100 µM	> 100 µM	> 100 µM
				1000 µM (≈ 280 µg/mL)	4 °C	Cc1nc2ccccc2c2ccc(C[C@H](N)C(=O)O)cc12	> 100 µM	> 100 µM	> 100 µM	> 100 µM	> 100 µM
